{
  "source": "patent US20030198611A1",
  "about": "“Method of treating onychomycosis with urea and an antioxidant” (Bradley Pharmaceuticals, Inc., priority 2002, published 2003)",
  "tested_on": "fungi",
  "test": "antifungal potency of urea compared with known antifungal agents",
  "settings": "no method or data given",
  "data": [
    {"molecule": "NC(N)=O", "note": "[urea]", "values": [
      {"measurement": "antifungal potency relative to known antifungal agents", "result": "equal potency to known antifungal agents"}
    ]}
  ]
}
